Data on eleven compounds can be found in patent US4705900A, “Insecticidal alkenes” (Imperial Chemical Industries PLC, priority 1985, dated 1987).

Data set [1] concerns Musca domestica. The data set can be described thus: knockdown of houseflies (MD/KD). It counts as in vivo, Musca domestica (houseflies - adults). As to conditions: cotton wool/sugar, 4 hours. As for the experimental part: (§1) The activity of the Product was determined using a variety of insect pests. The Product was used in the form of liquid preparations containing 500 or 100 parts per million (ppm) by weight of the Product. The preparations were made by dissolving the Product in acetone and diluting the solutions with water containing 0.01% by weight of a wetting agent sold under the trade name "LISSAPOL" NX until the liquid preparations contained the required concentration of the Product. "Lissapol" is a Registered Trade Mark.
(§2) The test procedure adopted with regard to each pest was basically the same and comprised supporting a number of the pests on a medium which was usually a host plant or a foodstuff on which the pests feed, and treating either or both the pests and the medium with the preparations. The mortality of the pests was then assessed at periods usually varying from one to three days after the treatment.
In case of the species Musca domestica (housefly), additional tests to determine the knockdown effect of the compounds were performed.
(§3) The results of the tests are given in Table IV for each of the Products, at the rate in parts per million given in the second column as a grading of mortality designated as A, B or C wherein A indicates 80-100% mortality or knockdown, B indicates 50-79% mortality or knockdown and C indicates less than 50% mortality or knockdown.
(§4) In Table IV the pest organism used is designated by a letter code and the pests species, the support medium or food, and the type and duration of test is given in Table III.

The subject of a further data set is Blattella germanica. Put plainly: mortality of cockroach nymphs (BG), residual test. It is filed as in vivo, Blattella germanica (cockroach nymphs). As to conditions: plastic pot, 3 days. The procedure: as §1, §2, §3, §4
A further data set deals with Myzus persicae. The data set can be described thus: mortality of aphids (MP), contact test. It is filed as in vivo, Myzus persicae (aphids). As to conditions: leaf, 2 days; for mortality at 500 ppm / grading of mortality, MP: 500 ppm; for grading of mortality, MP: 2880 min. As for the experimental part:
as §1, §2, §3, §4

The next data set has as its system Diabrotica balteata. Put plainly: mortality of rootworm larvae (DB), residual test. It is filed as in vivo, Diabrotica balteata (rootworm larvae). As to conditions: filter paper/maize seed, 3 days; for mortality at 500 ppm / grading of mortality, DB: 500 ppm; for grading of mortality, DB: 4320 min. The procedure:
as §1, §2, §3, §4

Another data set has as its system Tetranychus urticae. The data set can be described thus: mortality of red spider mites (TU), contact test. As to conditions: French bean leaf, 3 days. It counts as in vivo, Tetranychus urticae (red spider mites - adult). The procedure: as §1, §2, §3, §4
(red spider mites - adult)

For data set [2], the system named is Musca domestica. Put plainly: mortality of houseflies (MD), contact test. As to conditions: cotton wool/sugar, 1 day. It is filed as in vivo, Musca domestica (houseflies - adults). The procedure: as §1, §2, §3, §4
Another data set relates to Nilaparvata lugens. The data set can be described thus: mortality of green leaf hopper (NL), contact test. It is filed as in vivo, Nilaparvata lugens (brown planthopper). As to conditions: cabbage leaf, 6 days; for mortality at 500 ppm / grading of mortality, NL: 500 ppm; for grading of mortality, NL: 8640 min. As for the experimental part:
as §1, §2, §3, §4

In the next data set the test system is Heliothis viriscens. The data set can be described thus: whole plant or invertebrate. It counts as in vivo, Heliothis viriscens (tobacco budworm). As to conditions: in Gossypium hirsutum, 72 h, read-out: grading of mortality, HV. The procedure: as §1, §2, §3, §4
The test system of the next data set is Chilo partellurs. Put plainly: mortality of stem borers (CP), residual test. It counts as in vivo, Chilo partellurs (Stem borers). As to conditions: oil seed rape leaf, 3 days. The procedure: as §1, §2, §3, §4
[3] abbreviates: Musca domestica, 500 ppm, read-out: grading of knockdown, MD/KD.
Setting [4] is: Blattella germanica, 72 h, 500 ppm, read-out: grading of mortality, BG.
Where [5] appears, read: Myzus persicae, 48 h, read-out: grading of mortality, MP.
The mark [6] stands for this setting: Diabrotica balteata, in Zea mays, 72 h, read-out: grading of mortality, DB.
Where [7] appears, read: Tetranychus urticae, 72 h, 500 ppm, read-out: grading of mortality, TU.
Where [8] appears, read: Musca domestica, 24 h, 500 ppm, read-out: grading of mortality, MD.
Setting [9] is: Nilaparvata lugens, in Brassica oleracea, 144 h, read-out: grading of mortality, NL.
The mark [10] stands for this setting: Chilo, 72 h, 500 ppm, read-out: grading of mortality, CP.

Each structure is given as a SMILES string.

With `Fc1ccc(/C=C/C2(COCc3cccc(Oc4ccccc4)c3)CC2)cc1` [Compound 19, 1-[2-(4-fluorophenyl)ethen-1-yl]-1-(3-phenoxybenzyloxymethyl)cyclopropane], the pest or weed control at 100 ppm in the data set with Musca domestica [1] (Musca domestica, 100 ppm, read-out: grading of knockdown, MD/KD) is under 50%. Moreover, the mortality at 100 ppm in the data set with Blattella germanica (Blattella germanica, 72 h, 100 ppm, read-out: grading of mortality, BG) was under 50%; in the data set on Myzus persicae (Myzus persicae, 48 h, 100 ppm, read-out: grading of mortality, MP) it was under 50%; in the data set on Diabrotica balteata (Diabrotica balteata, in Zea mays, 72 h, 100 ppm, read-out: grading of mortality, DB), under 50%; in the data set on Tetranychus urticae (Tetranychus urticae, 72 h, 100 ppm, read-out: grading of mortality, TU) it was under 50%; in the data set on Musca domestica [2] (Musca domestica, 24 h, 100 ppm, read-out: grading of mortality, MD), under 50%; in the data set on Nilaparvata lugens (Nilaparvata lugens, in Brassica oleracea, 144 h, 100 ppm, read-out: grading of mortality, NL), under 50%. Also, the mortality at 100 ppm in the data set with Heliothis viriscens is 80 to 100%; in the data set on Chilo partellurs (Chilo, 72 h, 100 ppm, read-out: grading of mortality, CP), under 50%.
For the compound `CC(C)(C=Cc1cccc(F)c1)COCc1cccc(Oc2ccccc2)c1` [Compound 17, 3,3-Dimethyl-1-(3-fluorophenyl)-4-(3-phenoxybenzyloxy)but-1-ene], in the data set on Musca domestica [1] (setting [3]), the pest or weed control at 500 ppm was under 50%. For the same compound, the mortality at 500 ppm with Blattella germanica (setting [4]), in the data set on Myzus persicae (setting [5]), in the data set on Diabrotica balteata (setting [6]), in the data set on Tetranychus urticae (setting [7]), with Musca domestica [2] (setting [8]) and in the data set on Nilaparvata lugens (setting [9]) was under 50% each time. The mortality at 500 ppm with Heliothis viriscens and in the data set on Chilo partellurs (setting [10]) was 80 to 100% in each case.
For `CCOc1ccc(/C=C/C(C)(C)COCc2ccc(F)c(Oc3ccccc3)c2)cc1` [Compound 10, 3,3-Dimethyl-1-(4-ethoxyphenyl)-4-(4-fluoro-3-phenoxybenzyloxy)but-1-ene], in the data set on Musca domestica [1] (setting [3]), the pest or weed control at 500 ppm fell in the range of 50 to 79%. Also, the mortality at 500 ppm is under 50% in the data set on Blattella germanica (setting [4]); 50 to 79% in the data set with Myzus persicae (setting [5]); under 50% in the data set with Diabrotica balteata (setting [6]); under 50% in the data set on Tetranychus urticae (setting [7]); 50 to 79% in the data set with Musca domestica [2] (setting [8]); under 50% in the data set on Nilaparvata lugens (setting [9]). Besides, the mortality at 500 ppm with Heliothis viriscens and in the data set with Chilo partellurs (setting [10]) was 80 to 100% each time.
On to `CC(C)(C=Cc1ccc(F)cc1)COCc1cccc(Oc2ccccc2)c1` [Compound 11, 3,3-Dimethyl-1-(4-fluorophenyl)-4-(3-phenoxybenzyloxy)but-1-ene], for which, in the data set on Musca domestica [1] (setting [3]), the pest or weed control at 500 ppm is 80 to 100%. For the same compound, the mortality at 500 ppm was under 50% with Blattella germanica (setting [4]); under 50% in the data set on Myzus persicae (setting [5]); 50 to 79% with Diabrotica balteata (setting [6]); under 50% in the data set on Tetranychus urticae (setting [7]); 50 to 79% with Musca domestica [2] (setting [8]); 80 to 100% in the data set on Nilaparvata lugens (setting [9]). The mortality at 500 ppm in the data set on Heliothis viriscens and in the data set on Chilo partellurs (setting [10]) was 80 to 100% each time.
For `CC(C)(C=Cc1ccc(Cl)cc1)COCc1cccc(Oc2ccccc2)c1` [Compound 1, 3,3-Dimethyl-1-(4-chlorophenyl)-4-(3-phenoxybenzyloxy)but-1-ene], the pest or weed control at 500 ppm in the data set with Musca domestica [1] (setting [3]) was in the range of 80 to 100%. In addition, the mortality at 500 ppm in the data set with Blattella germanica (setting [4]) was under 50%; in the data set on Tetranychus urticae (setting [7]), 50 to 79%; with Musca domestica [2] (setting [8]), 50 to 79%; in the data set on Heliothis viriscens, 80 to 100%; in the data set on Chilo partellurs (setting [10]) it was 80 to 100%. In the data set with Myzus persicae, the “grading of mortality, MP” value is “C (C indicates less than 50% mortality or knockdown)”. In addition, the “grading of mortality, DB” value with Diabrotica balteata is given as “C (C indicates less than 50% mortality or knockdown)”. Besides, the “grading of mortality, NL” value in the data set on Nilaparvata lugens is recorded as “B (B indicates 50-79% mortality or knockdown)”.
As to `Fc1ccc(/C=C\C2(COCc3cccc(Oc4ccccc4)c3)CC2)cc1` [Compound 20, 1-[2-(4-fluorophenyl)ethen-1-yl]-1-(3-phenoxybenzyloxymethyl)cyclopropane], the pest or weed control at 500 ppm with Musca domestica [1] (setting [3]) is under 50%. Besides, the mortality at 500 ppm in the data set on Blattella germanica (setting [4]) was under 50%; with Myzus persicae (setting [5]), 50 to 79%; in the data set with Diabrotica balteata (setting [6]), under 50%; in the data set with Tetranychus urticae (setting [7]) it was under 50%; in the data set with Musca domestica [2] (setting [8]), under 50%; in the data set with Nilaparvata lugens (setting [9]) it was under 50%. Besides, the mortality at 500 ppm in the data set on Heliothis viriscens was under 50%; with Chilo partellurs (setting [10]), 80 to 100%.
In the case of `CC(C)(C=Cc1ccc(F)c(F)c1)COCc1cccc(Oc2ccccc2)c1` [Compound 18, 3,3-Dimethyl-1-(3,4-difluorophenyl)-4-(3-phenoxybenzyloxy)but-1-ene], the pest or weed control at 500 ppm in the data set with Musca domestica [1] (setting [3]) was under 50%. Further, the mortality at 500 ppm with Blattella germanica (setting [4]) is under 50%; in the data set on Myzus persicae (setting [5]), under 50%; with Diabrotica balteata (setting [6]), under 50%; in the data set on Tetranychus urticae (setting [7]), 50 to 79%; with Musca domestica [2] (setting [8]), under 50%; with Nilaparvata lugens (setting [9]), under 50%. In addition, the mortality at 500 ppm in the data set with Heliothis viriscens and with Chilo partellurs (setting [10]) was 80 to 100% in each case.
For `CC(C)(/C=C\c1ccc(Cl)cc1)COCc1cccc(Oc2ccccc2)c1` [Compound 2, 3,3-Dimethyl-1-(4-chlorophenyl)-4-(3-phenoxybenzyloxy)but-1-ene], the pest or weed control at 500 ppm in the data set with Musca domestica [1] (setting [3]) was under 50%. The mortality at 500 ppm with Blattella germanica (setting [4]), with Myzus persicae (setting [5]), in the data set on Diabrotica balteata (setting [6]), in the data set on Tetranychus urticae (setting [7]), in the data set on Musca domestica [2] (setting [8]) and with Nilaparvata lugens (setting [9]) was under 50% throughout. Moreover, the mortality at 500 ppm was under 50% in the data set with Heliothis viriscens and 50 to 79% with Chilo partellurs (setting [10]).
Consider `CC(C)(CCc1ccc(Cl)cc1)COCc1cccc(Oc2ccccc2)c1` [Compound 34, 3,3-dimethyl-1-(4-chlorophenyl)-4-(3-phenoxybenzyloxy)butane], for which, in the data set with Musca domestica [1] (setting [3]), the pest or weed control at 500 ppm was under 50%. Also, the mortality at 500 ppm with Blattella germanica (setting [4]) is under 50%; in the data set on Myzus persicae (setting [5]) it was under 50%; in the data set on Diabrotica balteata (setting [6]) it was under 50%; in the data set on Tetranychus urticae (setting [7]) it was 50 to 79%; in the data set on Musca domestica [2] (setting [8]) it was under 50%; in the data set on Nilaparvata lugens (setting [9]), under 50%. The mortality at 500 ppm in the data set on Heliothis viriscens and with Chilo partellurs (setting [10]) was 80 to 100% each time.
As to `CC(C)(C=Cc1ccc(Cl)cc1)COCc1cccc(Oc2ccccc2)c1` [Compound 13, 3,3-Dimethyl-1-(4-chlorophenyl)-4-(3-phenoxybenzyloxy)but-1-ene], in the data set with Musca domestica [1] (500 ppm), the “grading of knockdown, MD/KD” value was “A (A indicates 80-100% mortality or knockdown)”. Further, the “grading of mortality, BG” value in the data set with Blattella germanica (500 ppm) was “C (C indicates less than 50% mortality or knockdown)”. The “grading of mortality, MP” value in the data set with Myzus persicae is “A (A indicates 80-100% mortality or knockdown)”. Further, the “grading of mortality, DB” value with Diabrotica balteata is reported as “A (A indicates 80-100% mortality or knockdown)”. Further, the “grading of mortality, TU” value in the data set on Tetranychus urticae (500 ppm) is given as “B (B indicates 50-79% mortality or knockdown)”. In the data set with Musca domestica [2] (500 ppm), the “grading of mortality, MD” value is “B (B indicates 50-79% mortality or knockdown)”. In addition, the “grading of mortality, NL” value in the data set with Nilaparvata lugens is “A (A indicates 80-100% mortality or knockdown)”. For the same compound, the “grading of mortality, CP” value in the data set on Chilo partellurs (500 ppm) was “A (A indicates 80-100% mortality or knockdown)”.
As to `CCC(C)(/C=C/c1ccc(Cl)cc1)COCc1cccc(Oc2ccccc2)c1` (stereo not shown) [Compound 25, 3-Ethyl-3-methyl-1-(4-chlorophenyl)-4-(3-phenoxybenzyloxy)but-1-ene], the pest or weed control at 500 ppm in the data set on Musca domestica [1] (setting [3]) is under 50%. Moreover, the mortality at 500 ppm with Blattella germanica (setting [4]) was 80 to 100%; in the data set with Myzus persicae (setting [5]), 50 to 79%; with Diabrotica balteata (setting [6]), under 50%; in the data set with Tetranychus urticae (setting [7]), under 50%; in the data set on Musca domestica [2] (setting [8]) it was 50 to 79%; in the data set on Nilaparvata lugens (setting [9]), 50 to 79%. The mortality at 500 ppm in the data set with Heliothis viriscens lay in the range of 80 to 100%.

By mortality is commonly meant the percentage killed.
